Structures can show the parent of a compound that is named as a salt.
Experiments:
IκBα-kinase complex = biological target: T1, IκBα-kinase complex (Homo sapiens, UniProt O14920+O15111); assay: biochemical; details: activated kinase complex from HeLa S3 cell-extracts S100 fraction; 30 minutes pre-incubation at 25°C; biotinylated peptide substrate; read-out: IkB-kinase IC50
T1 construct: IKBα kinase complex was prepared by first diluting 10 mL of HeLa S3 cell-extracts S100 fraction; endogenous in cells; host or cells: HeLa S3 (S100 fraction, 40% ammonium sulfate cut, Superose-6 fractions at about 670 kDa)

[1] = test system: mouse heterotopic cardiac transplant (BALB/c->C57BL/6 or B6/129); assay: Mouse heterotopic cardiac transplant model; format: in vivo; details: oral administration, 25 mg/kg/day for 14 days, starting at transplantation
Excerpt: In the mouse heterotopic cardiac transplant model across full histocompatibility barriers (BALB/c->C57BL/6 or B6/129), graft survival is typically limited to 7.3 ± 0.4 days (mean ± SD, […]) (see for example in Hancock WW, Sayegh MH, Zheng XG, Peach R, Linsley PS, Turka LA. Costimulatory function and expression of CD40-ligand, CD80 and CD86 or in vascularized murine cardiac allograft rejection. Proc Natl Acad Sci (USA) 93, 1996, 13967-13972; and Hancock W W, Buelow R, Sayegh MH, Turka LA. Antibody-induced transplant arteriosclerosis is prevented by graft expression of antioxidant and anti-apoptotic genes. Nature Med 4, 1998, 1392-1396).
The effects of oral administration of the compounds according to examples 49 and 60 were tested using 25 mg/kg/day for 14 days, starting at transplantation in said animal model. Whereas grafts in animals receiving the carrier, methylcellulose, rejected by 7 days (6.7 ± 0.8), grafts in compound 49-treated mice survived around 15 days (15.3 ± 0.6), and grafts in those given compound 60 survived for 20 days (20 ± 1). Current immunosuppressive therapies used in transplantation have limited efficacy and/or considerable toxicity.

T1 sequence (O14920 whole entry): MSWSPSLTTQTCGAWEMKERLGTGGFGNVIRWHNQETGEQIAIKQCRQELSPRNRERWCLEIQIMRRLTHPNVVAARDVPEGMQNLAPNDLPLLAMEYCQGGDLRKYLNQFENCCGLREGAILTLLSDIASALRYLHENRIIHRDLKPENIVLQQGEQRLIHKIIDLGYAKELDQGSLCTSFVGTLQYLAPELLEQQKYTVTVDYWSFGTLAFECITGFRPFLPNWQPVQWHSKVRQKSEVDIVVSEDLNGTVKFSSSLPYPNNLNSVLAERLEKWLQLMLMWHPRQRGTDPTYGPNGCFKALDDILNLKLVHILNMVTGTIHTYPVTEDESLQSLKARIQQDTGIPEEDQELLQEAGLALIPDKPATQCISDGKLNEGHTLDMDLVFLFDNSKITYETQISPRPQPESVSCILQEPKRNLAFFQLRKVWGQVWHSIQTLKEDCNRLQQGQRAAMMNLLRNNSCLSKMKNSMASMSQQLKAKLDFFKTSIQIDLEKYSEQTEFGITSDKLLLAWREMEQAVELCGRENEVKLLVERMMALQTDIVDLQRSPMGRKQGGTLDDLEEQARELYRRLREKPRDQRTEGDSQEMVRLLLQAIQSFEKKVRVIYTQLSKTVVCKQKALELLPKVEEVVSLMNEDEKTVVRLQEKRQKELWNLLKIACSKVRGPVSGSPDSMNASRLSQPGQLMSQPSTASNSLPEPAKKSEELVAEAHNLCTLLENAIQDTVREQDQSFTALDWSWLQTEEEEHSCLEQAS
T1 sequence (O15111 whole entry): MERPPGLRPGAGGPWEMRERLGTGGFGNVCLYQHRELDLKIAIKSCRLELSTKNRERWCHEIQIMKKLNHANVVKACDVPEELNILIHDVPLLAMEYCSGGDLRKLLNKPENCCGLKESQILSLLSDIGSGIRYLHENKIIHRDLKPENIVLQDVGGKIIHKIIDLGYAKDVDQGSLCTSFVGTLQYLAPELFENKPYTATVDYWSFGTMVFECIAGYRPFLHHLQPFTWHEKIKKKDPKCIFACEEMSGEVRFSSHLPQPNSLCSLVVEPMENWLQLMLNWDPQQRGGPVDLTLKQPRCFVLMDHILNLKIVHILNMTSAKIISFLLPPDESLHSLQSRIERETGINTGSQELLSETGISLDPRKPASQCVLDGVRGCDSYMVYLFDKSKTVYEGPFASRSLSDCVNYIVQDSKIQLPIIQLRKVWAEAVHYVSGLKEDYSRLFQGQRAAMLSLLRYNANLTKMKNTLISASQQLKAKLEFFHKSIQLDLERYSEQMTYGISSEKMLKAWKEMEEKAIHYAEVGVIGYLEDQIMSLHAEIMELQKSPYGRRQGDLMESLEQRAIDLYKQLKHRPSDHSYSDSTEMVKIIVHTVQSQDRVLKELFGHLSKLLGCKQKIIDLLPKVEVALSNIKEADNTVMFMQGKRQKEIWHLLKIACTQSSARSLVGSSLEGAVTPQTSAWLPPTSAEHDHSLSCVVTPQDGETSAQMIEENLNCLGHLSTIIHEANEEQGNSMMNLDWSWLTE
T1 sequence (Q9Y6K9 whole entry partner): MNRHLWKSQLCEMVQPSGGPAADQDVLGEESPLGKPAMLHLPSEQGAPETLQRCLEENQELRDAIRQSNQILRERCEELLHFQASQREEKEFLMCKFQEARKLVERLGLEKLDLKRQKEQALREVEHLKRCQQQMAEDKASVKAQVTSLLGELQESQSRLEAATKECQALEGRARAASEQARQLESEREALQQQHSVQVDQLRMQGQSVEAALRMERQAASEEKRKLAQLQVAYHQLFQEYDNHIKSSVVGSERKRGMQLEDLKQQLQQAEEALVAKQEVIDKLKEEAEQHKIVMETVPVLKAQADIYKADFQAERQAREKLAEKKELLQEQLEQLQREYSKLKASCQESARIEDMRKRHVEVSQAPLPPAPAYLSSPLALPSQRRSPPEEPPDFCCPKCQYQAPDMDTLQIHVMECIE

Compound `COc1ccc2c(c1)[nH]c1c(C)nccc12` [Example 35, 7-methoxy-1-methyl-β - carboline] has an IC50 (IκBα-kinase complex) of 3500 nM.
With `CC(=O)c1nccc2c1[nH]c1cc(Br)ccc12` [Example 2, 1-acetyl-7-bromo-β-carboline] the IC50 (IκBα-kinase complex) was 400 nM.
With `CC(C)c1ccc2c(c1)[nH]c1cnccc12` [Example 4, 7-isopropyl-β -carboline hydrochloride] the IC50 (IκBα-kinase complex) was 2500 nM.
Compound `O=[N+]([O-])c1ccc2c(c1)[nH]c1cnccc12` [Example 6, 7-nitro-β-carboline hydrochloride] has an IC50 (IκBα-kinase complex) of 3000 nM.
`Brc1ccc2c3ccncc3n(Br)c2c1` [Example 8, 7,9-dibromo-β - carboline hydrochloride] gave an IC50 (IκBα-kinase complex) of 200 nM.
For `FC(F)(F)c1ccc2c(c1)[nH]c1cnccc12` [Example 42, 7-trifluoromethyl-β-carboline], the IC50 (IκBα-kinase complex) was 800 nM.
`O=C(Nc1cc(Cl)cc2c1[nH]c1cnccc12)c1cccnc1` [Example 60, N-(6-Chloro-9H-β-carbolin-8-yl)-nicotinamide] showed a graft survival [1] of 20 ± 1 days.
`Fc1ccc2c(c1)[nH]c1cnccc12` [Example 3, 7-fluoro-β-carboline] showed an IC50 (IκBα-kinase complex) of 1000 nM.
For `COc1ccc2c(c1)[nH]c1cnccc12` [Example 30, 7-methoxy-β - carboline], the IC50 (IκBα-kinase complex) was 5200 nM.
For `Clc1ccc2c3ccncc3n(Cl)c2c1` [Example 9, 7,9-dichloro-β-carboline], the IC50 (IκBα-kinase complex) was 200 nM.
`CC(=O)c1nccc2c1[nH]c1cc(Cl)ccc12` [Example 13, 1-acetyl-7-chloro-β - carboline] was tested, and the IC50 (IκBα-kinase complex) was 500 nM.
Work on `N#Cc1ccc2c(c1)[nH]c1cnccc12` [Example 5, 7-cyano-β-carboline] yielded an IC50 (IκBα-kinase complex) of 1000 nM.
For `Oc1nccc2c1[nH]c1cc(C(F)(F)F)ccc12` [Example 41, 1-hydroxy-7-trifluoromethyl-β-carboline], the IC50 (IκBα-kinase complex) was 2200 nM.
For “7-chloro-9-(4-fluorobenzoylamino)-β-carboline trifluoroacetate [Example 49]”, the graft survival [1] was 15.3 ± 0.6 days.
In the case of `Fc1c(Cl)ccc2c1[nH]c1cnccc12` [Example 34, 7-chloro-8-fluoro-β - carboline], the IC50 (IκBα-kinase complex) is reported as 1000 nM.
For `Cn1ccc2c3cccc(O)c3nc-2c1` [Example 23, 8-hydroxy-2-methyl-β-carboline], the IC50 (IκBα-kinase complex) was 22000 nM.
“7-chloro-9-(methylamino)-β-carboline trifluoroacetate [Example 43]” showed an IC50 (IκBα-kinase complex) of 1000 nM.
`O=[N+]([O-])n1c2cnccc2c2ccc(Cl)cc21` [Example 14, 7-chloro-9-nitro-β-carboline] gave an IC50 (IκBα-kinase complex) of 4000 nM.
“7-chloro-9-(Acetyl-methylamino)-β-carboline trifluoroacetate [Example 48]” gave an IC50 (IκBα-kinase complex) of 4000 nM.
For `Nn1c2cnccc2c2ccc(Cl)cc21` [Example 15, 9-amino-7-chloro-β-carboline], the IC50 (IκBα-kinase complex) was 800 nM.
With `O=C(O)c1ccc2c(c1)[nH]c1cnccc12` [Example 7, 7-carboxy-β-carboline trifluoroacetat] the IC50 (IκBα-kinase complex) was 65000 nM.
